Data as given in PMC2810717 (Biochemistry, 2010).

Key:
spermine oxidase (SMO) [1] = molecular target: T1, spermine oxidase (SMO) (Homo sapiens, UniProt Q9NWM0); type: biochemical
spermine oxidase (SMO) [2] = molecular target: T1, spermine oxidase (SMO); assay: biochemical

T1 sequence (Q9NWM0 whole entry): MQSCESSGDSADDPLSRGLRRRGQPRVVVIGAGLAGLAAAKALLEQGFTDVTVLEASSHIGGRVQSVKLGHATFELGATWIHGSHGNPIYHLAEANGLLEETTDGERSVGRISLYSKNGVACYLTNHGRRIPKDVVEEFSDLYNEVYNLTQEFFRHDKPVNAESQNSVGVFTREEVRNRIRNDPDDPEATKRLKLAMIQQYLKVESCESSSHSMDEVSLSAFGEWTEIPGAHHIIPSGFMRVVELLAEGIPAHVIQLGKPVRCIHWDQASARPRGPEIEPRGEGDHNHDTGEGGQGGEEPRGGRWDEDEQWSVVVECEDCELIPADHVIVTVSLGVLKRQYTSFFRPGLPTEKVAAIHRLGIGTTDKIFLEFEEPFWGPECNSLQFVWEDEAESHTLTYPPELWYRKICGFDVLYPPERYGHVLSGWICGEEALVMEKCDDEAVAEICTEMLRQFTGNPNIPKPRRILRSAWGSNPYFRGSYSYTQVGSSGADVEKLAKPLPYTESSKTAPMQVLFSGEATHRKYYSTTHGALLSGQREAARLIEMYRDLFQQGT

Kd (spermine oxidase (SMO) [2]) [µM]	SMILES	Ki (spermine oxidase (SMO) [1]) [µM]
–	c1ccc(CNCCCCNCc2ccccc2)cc1 [DBDB, N,N’-dibenzylbutane-1,4-diamine]	320 ± 80
48 ± 8.2	NCCCNCCCCNCCCN [spermine]	–
–	NCCCCNCCCN [spermidine]	550 ± 20
